From the supplement of paper PMC10307832

Columns and labels:
Assay in all cases: relative viability (nuclei count vs DMSO), 5 days (fraction); higher = more cells survive
[1] = compound: C1CNCCC1C2=CC(=NN2)C3=CC=NC=C3 + CC(=O)c1c(C)c2cnc(Nc3ccc(N4CCNCC4)cn3)nc2n(C2CCCC2)c1=O [Palbociclib] (partner 0.5 µM)
In short: (§1)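 Relative viability was taken as the ratio of nuclei in treated wells to nuclei in vehicle wells. Lung cancer cell lines in 1536-well plates received compounds by pin tool one day after seeding, either one drug alone or a fixed anchor-drug dose plus five library-drug doses (not always all listed) in √10 steps. Nuclei were counted on 4× images after 5 days of treatment, and values are medians of duplicate plates.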

[2] = compound: C[C@@H](N)c1ccc(C(=O)Nc2ccnc3[nH]ccc23)cc1 + CC(C)C[C@H](NC(=O)[C@H](Cc1ccccc1)NC(=O)c1cnccn1)B(O)O [Bortezomib] (partner 0.002 µM)
In short: as §1

[3] = compound: C[C@@H](N)c1ccc(C(=O)Nc2ccnc3[nH]ccc23)cc1 + COc1cc2c(Oc3ccc(NC(=O)C4(C(=O)Nc5ccc(F)cc5)CC4)cc3F)ccnc2cc1OCCCN1CCOCC1 [Foretinib] (partner 0.25 µM)
In short: as §1

[4] = compound: C[C@@H](N)c1ccc(C(=O)Nc2ccnc3[nH]ccc23)cc1 + CS(=O)(=O)CCNCc1ccc(-c2ccc3ncnc(Nc4ccc(OCc5cccc(F)c5)c(Cl)c4)c3c2)o1 [Lapatinib] (partner 2 µM)
In short: as §1

Cell Line | relative viability ([1]; first compound 0.08 µM) | relative viability ([1]; first compound 0.8 µM) | relative viability ([1]; first compound 2.53 µM) | relative viability ([1]; first compound 8 µM) | relative viability ([2]; first compound 0.04 µM) | relative viability ([2]; first compound 0.1265 µM) | relative viability ([2]; first compound 0.4 µM) | relative viability ([2]; first compound 1.265 µM) | relative viability ([2]; first compound 4 µM) | relative viability ([3]; first compound 0.04 µM) | relative viability ([3]; first compound 0.1265 µM) | relative viability ([3]; first compound 0.4 µM) | relative viability ([3]; first compound 4 µM) | relative viability ([4]; first compound 0.04 µM) | relative viability ([4]; first compound 0.1265 µM) | relative viability ([4]; first compound 0.4 µM) | relative viability ([4]; first compound 1.265 µM) | relative viability ([4]; first compound 4 µM) | relative viability ([3]; first compound 1.265 µM)
201T | 0.376 | 0.353 | 0.355 | 0.362 | 1.09 | 1.08 | 1.11 | 1.17 | 1.25 | 1.1 | 1.04 | 1.25 | 1.31 | 1 | 0.989 | 1.09 | 0.971 | 1.24 | –
A549 | – | – | – | – | – | – | – | – | – | 1.09 | 0.98 | 1.07 | 0.515 | 1.1 | 0.895 | 1.06 | 0.924 | 0.53 | 0.776
A-427 | 0.486 | 0.559 | 0.529 | 0.49 | 0.985 | 1.06 | 0.984 | – | 0.764 | 1.13 | 1 | 1.14 | 1.07 | 0.968 | 1.07 | 1 | – | 0.885 | –
ABC-1 | 0.468 | 0.617 | 0.733 | 0.76 | 0.289 | 0.308 | 0.333 | 0.272 | 0.319 | 1.25 | 1.12 | 1.34 | 0.993 | 1.16 | 1.02 | 1.2 | – | 1.36 | –
BEN | 0.447 | 0.47 | 0.45 | 0.433 | 0.765 | 0.736 | 0.875 | 0.909 | 0.457 | 0.331 | 0.525 | 0.878 | 0.4 | 0.706 | 0.675 | 0.99 | 0.781 | 0.438 | 0.689
CAL-12T | 0.535 | 0.0415 | 0.566 | 0.572 | 1.09 | 1.07 | 1.2 | – | 1.04 | 1.36 | 1.27 | 1.13 | 0.909 | 0.801 | 0.811 | 0.886 | – | 0.875 | 1.27
COR-L23 | 0.307 | 0.278 | 0.29 | 0.291 | 0.827 | 0.983 | 1.03 | 0.779 | 0.341 | 0.943 | 1.01 | 1.02 | 0.534 | 0.948 | 1.01 | 0.897 | 0.895 | 0.576 | 0.938
COR-L 105 | 0.394 | 0.405 | 0.421 | 0.472 | 0.826 | 0.732 | 0.791 | 0.469 | 0.649 | 0.755 | 0.939 | 1.03 | 0.761 | 0.305 | 0.355 | 0.376 | 0.257 | 0.364 | 0.865
Calu-6 | – | – | – | – | 0.99 | 1.1 | 0.911 | 0.886 | 0.886 | 0.981 | 0.973 | 0.878 | 0.742 | 1.09 | 1.08 | 1.1 | 0.902 | 0.832 | 0.807
ChaGo-K-1 | 0.928 | 0.939 | 0.943 | 0.923 | 1.01 | 1.07 | 1 | – | 0.734 | 0.93 | 0.955 | 0.885 | 0.799 | – | – | – | – | – | 0.918
EBC-1 | – | – | – | – | 0.573 | 0.662 | 0.558 | 0.444 | 0.487 | 0.0976 | 0.0967 | 0.0934 | 0.092 | 0.265 | 0.239 | 0.219 | 0.179 | 0.171 | 0.0803
EKVX | 0.38 | – | 0.412 | 0.395 | 1.08 | 1 | 1.39 | 0.992 | 0.971 | 0.84 | 0.674 | 0.888 | 0.727 | 0.223 | 0.224 | 0.242 | 0.224 | 0.215 | 0.208
EMC-BAC-2 | 0.435 | 0.513 | 0.531 | 0.523 | 0.882 | 1.21 | 1.19 | 1.08 | 0.968 | 1.08 | 1.05 | 1.11 | 0.903 | 0.86 | 0.896 | 0.898 | 0.986 | 0.897 | 0.967
EPLC-272H | 0.343 | 0.359 | 0.326 | 0.334 | 1.13 | 0.987 | 1.09 | – | 0.977 | 0.715 | 0.747 | 0.797 | 0.587 | 1 | 0.914 | 1.1 | – | 0.668 | 0.768
H3255 | 0.309 | 0.338 | 0.327 | 0.346 | 0.827 | 0.86 | 0.895 | 0.955 | 0.657 | 0.855 | 0.939 | 1.14 | 0.892 | 0.306 | 0.304 | 0.302 | 0.334 | 0.306 | 0.731
HARA | 0.284 | 0.282 | 0.281 | 0.28 | 1.24 | 1.26 | 1.22 | 1.17 | 1.14 | – | 0.939 | 0.943 | 0.896 | 0.829 | 0.904 | 0.79 | 0.803 | 0.702 | –
HCC-15 | 0.734 | 0.849 | 0.79 | 0.699 | 1.11 | 1.02 | 1.05 | – | 0.93 | 1.21 | 1.03 | 0.966 | 0.975 | 0.827 | 0.789 | 0.854 | – | 0.785 | –
HCC-44 | 0.994 | 0.997 | 1 | 0.97 | 0.863 | 0.871 | 0.959 | 1.08 | 0.78 | – | – | – | – | 1.09 | 1.02 | 1.04 | 1.18 | 0.916 | –
HCC-78 | 0.503 | 0.429 | 0.472 | 0.479 | 0.504 | 0.42 | 0.661 | 0.69 | 0.313 | 0.626 | 0.573 | 0.623 | 0.693 | 1.3 | 0.767 | 1.15 | 0.171 | 0.677 | 0.771
